Patent publication US20080319375A1, “Materials, Methods, and Systems for Cavitation-mediated Ultrasonic Drug Delivery in vivo” (Biovaluation & Analysis, Inc., priority 2007, published 2008)

Test: Micropipette aspiration of polymersome membranes
Type: physicochemical
Description: Thermal undulations of the quasi-spherical polymersome membranes provide an immediate indication of membrane softness. […] The micromanipulations are done with micropipette systems, as described above, and analogous to those described by Longo et al. (1997) and by Discher et al. (1994).
Analogous to a lipid bilayer, at low but increasing aspiration pressures, the thermally undulating polymersome membrane is progressively smoothed, increasing the projected area logarithmically with tension, t. From the slope of this increase (i.e., in tension units of mN/m) versus the fractional change, α, in vesicle area, the bending modulus, Kb, is calculated (see, e.g., Evans et al., 1990) with the following equation:
Kb≅kBT ln(t)/(8απ)+constant Equation 3 […]
Despite the comparative toughness of the polymersome membrane, a core “cavitation pressure,” Pc, may be readily estimated as pc=tc/d (5) yielding a value of pc=−25 atm. […] Bulk liquids such as water and light organics, are commonly reported to have measured tensile strengths of such a magnitude as may be generically estimated from a ratio of nominal interfacial tensions to molecular dimensions (i.e., ˜γ/d).

CCCCCCCC/C=C\CCCCCCCC(=O)O[C@H](COC(=O)CCCCCCCCCCCCCCCCC)COP(=O)([O-])OCC[N+](C)(C)C [SOPC, 1-stearoyl-2-oleoyl phosphatidylcholine]
area expansion modulus, Ka: ~180 mN/m
